Structures can show the parent of a compound that is named as a salt. Blank lines part the entries; values can stand above or below the compound they belong to.
Assays:
anesthetized dogs = assay: renal vasodilator activity test in anesthetized dogs (infusion); format: in vivo, dog; conditions: for renal vasodilator activity: primary test period of the renal anesthetized dog screening protocol
Text: Representative specific results are included in the examples.

[1] = tested on: spontaneously hypertensive rats; assay: spontaneously hypertensive rat (SHR) diuretic naturetic assay; format: in vivo; conditions: 25 and 50 mg/kg i.p.
Description: In this test, male, Okamato-Aoki strain, spontaneously hypertensive rats, aged 16-19 weeks, are fasted, then, the following afternoon, the first dose of test compound is administered, along with a 25 ml/kg p.o. load of normal saline. The animals are, then, placed in metabolism cages and urine collected for three hours for analysis. Indirect systolic blood pressure and heart rate are measured by a tail-cuff. An identical second dose of test compound is administered. After two hours, blood pressure and heart rate are again tested. The test compound is usually administered p.o. or i.p. in saline with 0.02% ascorbic acid.

[2] = tested on: angiotensin coverting enzyme; assay: angiotensin converting enzyme inhibiting activity; format: in vivo; conditions: at 10 times its renally effective dose
[3] = tested on: dopamine-sensitive adenylate cyclase system; assay: dopamine-sensitive adenylate cyclase system in vitro; format: biochemical
toad bladder = toad bladder anti-ADH assay
[4] = bradycardic effect (heart rate), test not stated; conditions: in vivo
[5] = two anesthetized dogs, 3, 30 and 300 μg/kg/min

SMILES: O=C(O)CN1CCC[C@H]1C(=O)N[C@@H](Cc1ccccc1)C(=O)N1CCC[C@H]1C(=O)O [Example 2 sulfate, N-carboxymethyl-L-prolyl-L-phenylalanyl-L-proline]
renal blood flow (qualitative) (anesthetized dogs; 30 and 300 μg/kg/min): increased renal blood flow

stimulation or antagonism of dopamine-sensitive adenylate cyclase [3]: did not stimulate or antagonize
SMILES: O=C(O)CN1CCC[C@H]1C(=O)NCCC(=O)N1CCC[C@H]1C(=O)O.O=S(=O)(O)O [Example 3, N-carboxymethyl-L-prolyl-β-alanyl-L-proline sulfate]
renal blood flow (qualitative) (anesthetized dogs; [5]): increased renal blood flow
renal vascular resistance (qualitative) (anesthetized dogs; [5]): decreased renal vascular resistance
Na+, K+ or urine excretion (qualitative) [1]: significant increase
angiotensin converting enzyme inhibiting activity [2]: did not have angiotensin coverting enzyme inhibiting activity
anti-ADH activity (toad bladder): nor was it active
bradycardic effect [4]: weak bradycardic effect

SMILES: CC(C(=O)O)N1CCC[C@H]1C(=O)NCCC(=O)N1CCC[C@H]1C(=O)O (stereo partly drawn) [N-(1-carboxyethyl)-L-prolyl-β-alanyl-L-proline]
renal vasodilator activity (anesthetized dogs): inactive

SMILES: NCCCC[C@H](NC(=O)[C@@H]1CCCN1CC(=O)O)C(=O)N1CCC[C@H]1C(=O)O [N-carboxymethyl-L-prolyl-L-lysyl-L-proline]
renal vasodilator activity (anesthetized dogs): inactive

SMILES: O=C(O)CN1CCC[C@H]1C(=O)NCC(=O)N1CCC[C@H]1C(=O)O [N-carboxymethyl-prolyl-glycyl-L-proline]
renal vasodilator activity (anesthetized dogs): inactive

SMILES: NCCc1ccc(O)c(O)c1 [dopamine]
RVR-ED15 (anesthetized dogs; secondary test in three dogs, i.v.): 3.5 µg/kg
